Where two headings read alike, the source gives them in different places.

From the text: The extent to which nickel values in the aqueous solution are transferred into the extractant, expressed in terms of a "distribution coefficient", is also of importance. The distribution coefficient after t minutes' agitation is defined as
wherein "a" is as defined hereinbefore and "c" is the nickel content of the aqueous phase, expressed in mg Ni/l.
The temperature in the vessel was held constant by circulating water through the space between the outer and the inner walls of the vessel. The vessel was provided with an inlet tube, a sampling cock at the bottom, a six-bladed turbine stirrer with a distance between the ends of the opposite tips of 2.8 cm, and four baffles, connected to the wall of the vessel and extending to the central axis over a distance of 0.7 cm. The stirrer speed was 2000 revolutions per minute.
100 ml of the starting organic extractant was introduced into the cylindrical vessel, the blades of the stirrer were positioned at the surface of the organic solution, stirring was started, and 100 ml of the starting aqueous solution was poured into the vessel. […] The temperature of the batch extraction mixture was held at 50° C. When equilibrium was reached, stirring was discontinued, the two phases were allowed to separate and the concentrations of the nickel in the organic phase and in the aqueous phase were determined. […] Stirring was again started and continued until equilibrium was attained at the higher pH. The two phases were allowed to separate and the concentrations of the nickel in the organic phase and in the aqueous phase were again determined. The procedure was continued in this manner to obtain equilibrium distribution coefficient data at several pH values.

With “1-(4-C10-14 -alkylphenyl)-1,2-nonanedione dioximes [Dioximes D]”, the “log D (logarithm of nickel value extraction distribution coefficient)” value (from here on “log D”) is recorded as 0.14 (pH 1.6) and 0.87 (pH 2.08).
With “1-(4-C10-14 -alkylphenyl)-1,2-propanedione dioximes [Dioximes C1]”, the “log D” value is recorded as -0.30 (pH 1.42), 0.10 (pH 1.66), 0.80 (pH 2) and 1.76 (pH 2.55).
With “2-(4-C10-14 -alkylphenyl)-2-hydroxyiminoethanal oximes [Dioximes B]”, the “log D” value reads like this: (pH 1.36) -0.38; (pH 1.7) 0.12; (pH 2.1) 0.82; (pH 2.66) 1.84.
In the case of `CCCCCCCC(=NO)C(CCCCCCC)=NO` [Dioxime A, 8,9-hexadecanedione dioxime, reference compound], the “log D” value runs as follows: (pH 1.58) -0.70; (pH 1.89) -0.22; (pH 2.04) 0.18; (pH 2.7) 1.19.

The values above are taken from patent publication US4234546A, “Liquid/liquid extraction of nickel values” (Shell Oil Company, priority 1977, dated 1980).
